According to the supplement of paper PMC9663587:

Columns and labels:
Neratinib/HKI272 = compound: CCOc1cc2ncc(C#N)c(Nc3ccc(OCc4ccccn4)c(Cl)c3)c2cc1NC(=O)/C=C/CN(C)C [Neratinib/HKI272]; assay: GR value, 72 h; higher = faster growth (1 = untreated, <0 = killing);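 note: breast cancer and non-malignant breast epithelial lines, nine half-log doses, viable cells counted by Hoechst and LIVE/DEAD dye imaging versus time-zero plates and DMSO controls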
[1] = compound: CCc1cnn2c(NCc3ccc[n+]([O-])c3)cc(N3CCCC[C@H]3CCO)nc12; assay: as above
THZ1 = compound: CN(C)C/C=C/C(=O)Nc1ccc(C(=O)Nc2cccc(Nc3ncc(Cl)c(-c4c[nH]c5ccccc45)n3)c2)cc1 [THZ1]; assay: as above
BSJ-03-123 = compound: CC(=O)c1c(C)c2cnc(Nc3ccc(N4CCN(CCOCCOCCOCCNC(=O)COc5cccc6c5C(=O)N(C5CCC(=O)NC5=O)C6=O)CC4)cn3)nc2n(C2CCCC2)c1=O [BSJ-03-123]; assay: as above
[2] = compound: CC(=O)c1c(C)c2cnc(Nc3ccc(N4CCNCC4)cn3)nc2n(C2CCCC2)c1=O; assay: as above
[3] = compound: CCN1CCN(Cc2ccc(Nc3ncc(F)c(-c4cc(F)c5nc(C)n(C(C)C)c5c4)n3)nc2)CC1; assay: as above
Flavopiridol [4] = compound: T1, CN1CC[C@H](c2c(O)cc(O)c3c(=O)cc(-c4ccccc4Cl)oc23)[C@H](O)C1 [Flavopiridol]; assay: as above
THZ531 = compound: CN(C)C/C=C/C(=O)Nc1ccc(C(=O)N2CCC[C@@H](Nc3ncc(Cl)c(-c4c[nH]c5ccccc45)n3)C2)cc1 [THZ531]; assay: as above
YKL-5-124 = compound: C=CC(=O)Nc1ccc(C(=O)Nc2[nH]nc3c2CN(C(=O)N[C@H](CN(C)C)c2ccccc2)C3(C)C)cc1 [YKL-5-124]; assay: as above
LEE011/Ribociclib = compound: CN(C)C(=O)c1cc2cnc(Nc3ccc(N4CCNCC4)cn3)nc2n1C1CCCC1 [LEE011/Ribociclib]; assay: as above
[5] = compound: CCN1CCN(Cc2ccc(Nc3ncc(F)c(-c4cc(F)c5nc(C)n(C(C)C)c5c4)n3)nc2)CC1; assay: increase in dead-cell fraction, 72 h; higher = more death;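 note: breast cancer cell lines in 384-well plates, stained with Hoechst plus LIVE/DEAD far red dye and imaged, cells above an LDR intensity threshold counted dead, Hoechst-negative corpses included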
Flavopiridol [6] = compound: T1, Flavopiridol; assay: as above

**Q.** Which GR value (Neratinib/HKI272; 0.0003162 µM) does the source give for T47D here?
**A.** 1.02 GR

**Q.** And the GR value (Neratinib/HKI272; 0.001 µM)?
**A.** 1.01 GR

**Q.** And the GR value (Neratinib/HKI272; 0.003162 µM)?
**A.** 0.94 GR

**Q.** What about the GR value (Neratinib/HKI272; 0.01 µM) of the same cell line?
**A.** 0.899 GR

**Q.** And the GR value (Neratinib/HKI272; 0.03162 µM)?
**A.** 0.749 GR

**Q.** What about the GR value (Neratinib/HKI272; 0.1 µM) of the same cell line?
**A.** 0.65 GR

**Q.** What about the GR value (Neratinib/HKI272; 0.3162 µM) of the same cell line?
**A.** 0.584 GR

**Q.** And the GR value (Neratinib/HKI272; 1 µM)?
**A.** 0.382 GR

**Q.** What about the GR value (Neratinib/HKI272; 3.162 µM) of the same cell line?
**A.** 0.215 GR

**Q.** What about the GR value ([1]; 0.0001 µM) of the same cell line?
**A.** 0.999 GR

**Q.** What about the GR value ([1]; 0.0003162 µM) of the same cell line?
**A.** 1.01 GR

**Q.** And the GR value ([1]; 0.001 µM)?
**A.** 1.08 GR

**Q.** And the GR value ([1]; 0.003162 µM)?
**A.** 1.12 GR

**Q.** And the GR value ([1]; 0.01 µM)?
**A.** 1.05 GR

**Q.** What about the GR value ([1]; 0.03162 µM) of the same cell line?
**A.** -0.0667 GR

**Q.** What about the GR value ([1]; 0.1 µM) of the same cell line?
**A.** -0.128 GR

**Q.** What about the GR value ([1]; 0.3162 µM) of the same cell line?
**A.** -0.19 GR

**Q.** And the GR value ([1]; 1 µM)?
**A.** -0.22 GR

**Q.** And the GR value (THZ1; 0.0001 µM)?
**A.** 0.967 GR

**Q.** And the GR value (THZ1; 0.0003162 µM)?
**A.** 1.08 GR

**Q.** And the GR value (THZ1; 0.001 µM)?
**A.** 0.922 GR

**Q.** What about the GR value (THZ1; 0.003162 µM) of the same cell line?
**A.** 1.02 GR

**Q.** What about the GR value (THZ1; 0.01 µM) of the same cell line?
**A.** 0.841 GR

**Q.** What about the GR value (THZ1; 0.03162 µM) of the same cell line?
**A.** 0.474 GR

**Q.** What about the GR value (THZ1; 0.1 µM) of the same cell line?
**A.** -0.116 GR

**Q.** And the GR value (THZ1; 0.3162 µM)?
**A.** -0.142 GR

**Q.** And the GR value (THZ1; 1 µM)?
**A.** -0.269 GR

**Q.** What about the GR value (BSJ-03-123; 0.001 µM) of the same cell line?
**A.** 0.505 GR

**Q.** And the GR value (BSJ-03-123; 0.003162 µM)?
**A.** 0.473 GR

**Q.** And the GR value (BSJ-03-123; 0.01 µM)?
**A.** 0.28 GR

**Q.** What about the GR value (BSJ-03-123; 0.03162 µM) of the same cell line?
**A.** 0.231 GR

**Q.** What about the GR value (BSJ-03-123; 0.1 µM) of the same cell line?
**A.** 0.228 GR

**Q.** What about the GR value (BSJ-03-123; 0.3162 µM) of the same cell line?
**A.** 0.203 GR

**Q.** And the GR value (BSJ-03-123; 1 µM)?
**A.** 0.115 GR

**Q.** And the GR value (BSJ-03-123; 3.162 µM)?
**A.** 0.165 GR

**Q.** What about the GR value (BSJ-03-123; 10 µM) of the same cell line?
**A.** 0.118 GR

**Q.** And the GR value ([2]; 0.0003162 µM)?
**A.** 1.07 GR

**Q.** What about the GR value ([2]; 0.001 µM) of the same cell line?
**A.** 1.08 GR

**Q.** And the GR value ([2]; 0.003162 µM)?
**A.** 1.04 GR

**Q.** And the GR value ([2]; 0.01 µM)?
**A.** 0.782 GR

**Q.** What about the GR value ([2]; 0.03162 µM) of the same cell line?
**A.** 0.478 GR

**Q.** What about the GR value ([2]; 0.1 µM) of the same cell line?
**A.** 0.203 GR

**Q.** And the GR value ([2]; 0.3162 µM)?
**A.** 0.177 GR

**Q.** What about the GR value ([2]; 1 µM) of the same cell line?
**A.** 0.122 GR

**Q.** What about the GR value ([2]; 3.162 µM) of the same cell line?
**A.** 0.132 GR

**Q.** And the GR value ([3]; 0.001 µM)?
**A.** 0.86 GR

**Q.** What about the GR value ([3]; 0.003162 µM) of the same cell line?
**A.** 0.604 GR

**Q.** What about the GR value ([3]; 0.01 µM) of the same cell line?
**A.** 0.244 GR

**Q.** What about the GR value ([3]; 0.03162 µM) of the same cell line?
**A.** 0.0789 GR

**Q.** And the GR value ([3]; 0.1 µM)?
**A.** 0.166 GR

**Q.** What about the GR value ([3]; 0.3162 µM) of the same cell line?
**A.** 0.117 GR

**Q.** And the GR value ([3]; 1 µM)?
**A.** 0.171 GR

**Q.** And the GR value ([3]; 3.162 µM)?
**A.** 0.0597 GR

**Q.** And the GR value ([3]; 10 µM)?
**A.** -0.03 GR

**Q.** What about the GR value (Flavopiridol [4]; 0.0001 µM) of the same cell line?
**A.** 0.983 GR

**Q.** And the GR value (Flavopiridol [4]; 0.0003162 µM)?
**A.** 1.05 GR

**Q.** And the GR value (Flavopiridol [4]; 0.001 µM)?
**A.** 0.945 GR

**Q.** And the GR value (Flavopiridol [4]; 0.003162 µM)?
**A.** 1.05 GR

**Q.** What about the GR value (Flavopiridol [4]; 0.01 µM) of the same cell line?
**A.** 0.897 GR

**Q.** What about the GR value (Flavopiridol [4]; 0.03162 µM) of the same cell line?
**A.** 0.808 GR

**Q.** And the GR value (Flavopiridol [4]; 0.1 µM)?
**A.** 0.548 GR

**Q.** And the GR value (Flavopiridol [4]; 0.3162 µM)?
**A.** 0.148 GR

**Q.** What about the GR value (Flavopiridol [4]; 1 µM) of the same cell line?
**A.** -0.153 GR

**Q.** And the GR value (THZ531; 0.0001 µM)?
**A.** 1.06 GR

**Q.** And the GR value (THZ531; 0.0003162 µM)?
**A.** 0.984 GR

**Q.** And the GR value (THZ531; 0.001 µM)?
**A.** 1.04 GR

**Q.** What about the GR value (THZ531; 0.003162 µM) of the same cell line?
**A.** 0.925 GR

**Q.** What about the GR value (THZ531; 0.01 µM) of the same cell line?
**A.** 1.15 GR

**Q.** What about the GR value (THZ531; 0.03162 µM) of the same cell line?
**A.** 1.06 GR

**Q.** And the GR value (THZ531; 0.1 µM)?
**A.** 0.675 GR

**Q.** What about the GR value (THZ531; 0.3162 µM) of the same cell line?
**A.** -0.121 GR

**Q.** What about the GR value (THZ531; 1 µM) of the same cell line?
**A.** -0.102 GR

**Q.** And the GR value (YKL-5-124; 0.001 µM)?
**A.** 0.51 GR

**Q.** What about the GR value (YKL-5-124; 0.003162 µM) of the same cell line?
**A.** 0.332 GR

**Q.** And the GR value (YKL-5-124; 0.01 µM)?
**A.** 0.172 GR

**Q.** And the GR value (YKL-5-124; 0.03162 µM)?
**A.** 0.143 GR

**Q.** And the GR value (YKL-5-124; 0.1 µM)?
**A.** 0.0629 GR

**Q.** And the GR value (YKL-5-124; 0.3162 µM)?
**A.** 0.0978 GR

**Q.** What about the GR value (YKL-5-124; 1 µM) of the same cell line?
**A.** 0.082 GR

**Q.** And the GR value (YKL-5-124; 3.162 µM)?
**A.** 0.0131 GR

**Q.** And the GR value (YKL-5-124; 10 µM)?
**A.** -0.175 GR

**Q.** And the GR value (LEE011/Ribociclib; 0.001 µM)?
**A.** 0.614 GR

**Q.** And the GR value (LEE011/Ribociclib; 0.003162 µM)?
**A.** 0.624 GR

**Q.** And the GR value (LEE011/Ribociclib; 0.01 µM)?
**A.** 0.407 GR

**Q.** What about the GR value (LEE011/Ribociclib; 0.03162 µM) of the same cell line?
**A.** 0.413 GR

**Q.** And the GR value (LEE011/Ribociclib; 0.1 µM)?
**A.** 0.297 GR

**Q.** What about the GR value (LEE011/Ribociclib; 0.3162 µM) of the same cell line?
**A.** 0.244 GR

**Q.** And the GR value (LEE011/Ribociclib; 1 µM)?
**A.** 0.174 GR

**Q.** And the GR value (LEE011/Ribociclib; 3.162 µM)?
**A.** 0.151 GR

**Q.** What about the GR value (LEE011/Ribociclib; 10 µM) of the same cell line?
**A.** 0.163 GR

**Q.** And the “increase in dead-cell fraction” value ([5]; 0.001 µM)?
**A.** -0.0007

**Q.** What about the “increase in dead-cell fraction” value ([5]; 0.003162 µM) of the same cell line?
**A.** 0.0004

**Q.** What about the “increase in dead-cell fraction” value ([5]; 0.01 µM) of the same cell line?
**A.** 0.0119

**Q.** And the “increase in dead-cell fraction” value ([5]; 0.03162 µM)?
**A.** 0.0119

**Q.** And the “increase in dead-cell fraction” value ([5]; 0.1 µM)?
**A.** 0.0081

**Q.** And the “increase in dead-cell fraction” value ([5]; 0.3162 µM)?
**A.** 0.0178

**Q.** And the “increase in dead-cell fraction” value ([5]; 1 µM)?
**A.** 0.0167

**Q.** What about the “increase in dead-cell fraction” value ([5]; 3.162 µM) of the same cell line?
**A.** 0.0642

**Q.** And the “increase in dead-cell fraction” value ([5]; 10 µM)?
**A.** 0.104

**Q.** And the “increase in dead-cell fraction” value (Flavopiridol [6]; 0.0001 µM)?
**A.** 0.0101

**Q.** What about the “increase in dead-cell fraction” value (Flavopiridol [6]; 0.0003162 µM) of the same cell line?
**A.** -0.0037

**Q.** What about the “increase in dead-cell fraction” value (Flavopiridol [6]; 0.001 µM) of the same cell line?
**A.** 0.0027

**Q.** What about the “increase in dead-cell fraction” value (Flavopiridol [6]; 0.003162 µM) of the same cell line?
**A.** 0.0005

**Q.** What about the “increase in dead-cell fraction” value (Flavopiridol [6]; 0.01 µM) of the same cell line?
**A.** 0.0011

**Q.** What about the “increase in dead-cell fraction” value (Flavopiridol [6]; 0.03162 µM) of the same cell line?
**A.** -0.0028

**Q.** And the “increase in dead-cell fraction” value (Flavopiridol [6]; 0.1 µM)?
**A.** 0.0027

**Q.** What about the “increase in dead-cell fraction” value (Flavopiridol [6]; 0.3162 µM) of the same cell line?
**A.** 0.0159

**Q.** What about the “increase in dead-cell fraction” value (Flavopiridol [6]; 1 µM) of the same cell line?
**A.** 0.0323
